Assay results: ChEMBL document CHEMBL3272309, “Potential central nervous system antitumor agents. Aziridinylbenzoquinones. 1” (J Med Chem, 1976)
In brackets after ≈: the same amount, converted by molar mass. Activity calls are given as the source filed them. No cut-off for these calls is given here.

Assays:
[1] = Therapeutic ratio, ratio of highest active dose to lowest active for antitumor activity against in ip dosed mouse allografted with mouse L1210 cells; assay type: ADME, organism-based; conditions: in vivo, read-out: TI
[2] = test system: L1210; assay: Antitumor activity against mouse L1210 cells allografted in mouse assessed as mouse survival at 3.12 mg/kg, ip qd administered from day 1 to 9 post intracerebral tumor-implantation relative to control; assay type: functional; conditions: route intraperitoneal
[3] = test system: L1210; assay: Antitumor activity against mouse L1210 cells allografted in mouse assessed as mouse survival at 0.78 mg/kg, ip qd administered from day 1 to 9 post intracerebral tumor-implantation relative to control; assay type: functional; conditions: route intraperitoneal
[4] = test system: L1210; assay: Antitumor activity against mouse L1210 cells allografted in mouse assessed as change in body weight at 3.12 mg/kg, ip qd administered from day 1 to 9 post intracerebral tumor-implantation measured on day 5 relative to control; assay type: functional; conditions: route intraperitoneal
[5] = test system: L1210; assay: Antitumor activity against mouse L1210 cells allografted in mouse assessed as change in body weight at 0.78 mg/kg, ip qd administered from day 1 to 9 post intracerebral tumor-implantation measured on day 5 relative to control; assay type: functional; conditions: route intraperitoneal
[6] = test system: P388; assay: Antitumor activity against mouse P388 cells allografted in mouse assessed as mouse survival at 3.12 mg/kg, ip qd administered from day 1 to 9 post intracerebral tumor-implantation relative to control; assay type: functional; conditions: route intraperitoneal
[7] = test system: P388; assay: Antitumor activity against mouse P388 cells allografted in mouse assessed as mouse survival at 1.56 mg/kg, ip qd administered from day 1 to 9 post intracerebral tumor-implantation relative to control; assay type: functional; conditions: route intraperitoneal
[8] = test system: P388; assay: Antitumor activity against mouse P388 cells allografted in mouse assessed as mouse survival at 0.39 mg/kg, ip qd administered from day 1 to 9 post intracerebral tumor-implantation relative to control; assay type: functional; conditions: route intraperitoneal
[9] = test system: P388; assay: Antitumor activity against mouse P388 cells allografted in mouse assessed as change in body weight at 3.12 mg/kg, ip qd administered from day 1 to 9 post intracerebral tumor-implantation measured on day 5 relative to control; assay type: functional; conditions: route intraperitoneal
[10] = test system: P388; assay: Antitumor activity against mouse P388 cells allografted in mouse assessed as change in body weight at 0.78 mg/kg, ip qd administered from day 1 to 9 post intracerebral tumor-implantation measured on day 5 relative to control; assay type: functional; conditions: route intraperitoneal
[11] = Antitumor activity against mouse ependymoblastoma cells allografted in mouse assessed as mouse survival at 2 mg/kg, ip qd administered from day 1 to 5 post intracerebral tumor-implantation relative to control; assay type: functional; conditions: route intraperitoneal
[12] = Antitumor activity against mouse ependymoblastoma cells allografted in mouse assessed as mouse survival at 1 mg/kg, ip qd administered from day 1 to 5 post intracerebral tumor-implantation relative to control; assay type: functional; conditions: route intraperitoneal
[13] = Antitumor activity against mouse ependymoblastoma cells allografted in mouse assessed as change in body weight at 4 mg/kg, ip qd administered from day 1 to 5 post intracerebral tumor-implantation measured on day 5 relative to control; assay type: functional; conditions: route intraperitoneal
[14] = Antitumor activity against mouse ependymoblastoma cells allografted in mouse assessed as change in body weight at 2 mg/kg, ip qd administered from day 1 to 5 post intracerebral tumor-implantation measured on day 5 relative to control; assay type: functional; conditions: route intraperitoneal
[15] = Antitumor activity against mouse ependymoblastoma cells allografted in mouse assessed as change in body weight at 1 mg/kg, ip qd administered from day 1 to 5 post intracerebral tumor-implantation measured on day 5 relative to control; assay type: functional; conditions: route intraperitoneal
[16] = test system: Mus musculus; assay: Antitumor activity against mouse ependymoblastoma cells allografted in mouse assessed as cure rate at 2 mg/kg, ip qd administered from day 1 to 5 post intracerebral tumor-implantation measured on day 99; assay type: functional, organism-based; parameters: dose 2 mg/kg
[17] = test system: L1210; assay: Antitumor activity against mouse L1210 cells allografted in ip dosed mouse at optimum dose administered qd on day 1, 5 and 9 relative to control; assay type: functional
[18] = Aqueous solubility of the compound; assay type: physicochemical
[19] = test system: L1210; assay: Antitumor activity against mouse L1210 cells allografted in mouse assessed as mouse survival at 3.12 mg/kg, ip qd administered from day 1 to 9 post ip tumor-implantation relative to control; assay type: functional; conditions: route intraperitoneal
[20] = test system: L1210; assay: Antitumor activity against mouse L1210 cells allografted in mouse assessed as mouse survival at 2 mg/kg, ip qd administered from day 1 to 9 post ip tumor-implantation relative to control; assay type: functional; conditions: route intraperitoneal
[21] = test system: L1210; assay: Antitumor activity against mouse L1210 cells allografted in mouse assessed as mouse survival at 1.3 mg/kg, ip qd administered from day 1 to 9 post ip tumor-implantation relative to control; assay type: functional; conditions: route intraperitoneal
[22] = test system: L1210; assay: Antitumor activity against mouse L1210 cells allografted in mouse assessed as change in body weight at 12.5 mg/kg, ip qd administered from day 1 to 9 post ip tumor-implantation measured on day 5 relative to control; assay type: functional; conditions: route intraperitoneal
[23] = test system: L1210; assay: Antitumor activity against mouse L1210 cells allografted in mouse assessed as change in body weight at 6.25 mg/kg, ip qd administered from day 1 to 9 post ip tumor-implantation measured on day 5 relative to control; assay type: functional; conditions: route intraperitoneal
[24] = test system: L1210; assay: Antitumor activity against mouse L1210 cells allografted in mouse assessed as change in body weight at 3.12 mg/kg, ip qd administered from day 1 to 9 post ip tumor-implantation measured on day 5 relative to control; assay type: functional; conditions: route intraperitoneal
[25] = test system: L1210; assay: Antitumor activity against mouse L1210 cells allografted in mouse assessed as change in body weight at 2 mg/kg, ip qd administered from day 1 to 9 post ip tumor-implantation measured on day 5 relative to control; assay type: functional; conditions: route intraperitoneal
[26] = test system: L1210; assay: Antitumor activity against mouse L1210 cells allografted in mouse assessed as change in body weight at 1.3 mg/kg, ip qd administered from day 1 to 9 post ip tumor-implantation measured on day 5 relative to control; assay type: functional; conditions: route intraperitoneal
[27] = test system: P388; assay: Antitumor activity against mouse P388 cells allografted in mouse assessed as mouse survival at 0.78 mg/kg, ip qd administered from day 1 to 9 post ip tumor-implantation relative to control; assay type: functional; conditions: route intraperitoneal
[28] = test system: Mus musculus; assay: Toxicity in mouse allografted with mouse P388 cells at 6.25 mg/kg, ip qd administered from day 1 to 9 post ip tumor-implantation; assay type: organism-based; parameters: dose 6.25 mg/kg, route intraperitoneal; conditions: in vivo
[29] = test system: P388; assay: Antitumor activity against mouse P388 cells allografted in mouse assessed as change in body weight at 1.56 mg/kg, ip qd administered from day 1 to 9 post ip tumor-implantation measured on day 5 relative to control; assay type: functional; conditions: route intraperitoneal
[30] = test system: P388; assay: Antitumor activity against mouse P388 cells allografted in mouse assessed as change in body weight at 6.25 mg/kg, ip qd administered from day 1 to 9 post ip tumor-implantation measured on day 5 relative to control; assay type: functional; conditions: route intraperitoneal
[31] = test system: Mus musculus; assay: Toxicity in mouse allografted with mouse B16 cells at 6.25 mg/kg, ip qd administered from day 1 to 9 post ip tumor-implantation; assay type: organism-based; parameters: dose 6.25 mg/kg, route intraperitoneal; conditions: in vivo
[32] = test system: B16; assay: Antitumor activity against mouse B16 cells allografted in mouse assessed as mouse survival at 3.12 mg/kg, ip qd administered from day 1 to 9 post ip tumor-implantation relative to control; assay type: functional; conditions: route intraperitoneal
[33] = test system: B16; assay: Antitumor activity against mouse B16 cells allografted in mouse assessed as change in body weight at 1.56 mg/kg, ip qd administered from day 1 to 9 post ip tumor-implantation measured on day 5 relative to control; assay type: functional; conditions: route intraperitoneal

CCOC(=O)NC1=C(N2CC2)C(=O)C(NC(=O)OCC)=C(N2CC2)C1=O [DIAZIQUONE]
selectivity ratio [1]: 4 | T/C [2]: 179% | T/C [3]: 103% | Activity [4]: -2.1 g | Activity [5]: -0.5 g | T/C [6]: 131% | T/C [7]: 137% | T/C [8]: 102% | Activity [9]: -2.1 g | Activity [10]: -0.4 g | T/C [11]: 271% | T/C [12]: 226% | Activity [13]: -3.9 g | Activity [14]: -2.7 g | Activity [15]: -2.1 g | Activity [16]: Active | T/C [17]: 154% | solubility [18]: 500 µg/mL (≈ 1370 µM) | T/C [19]: 128% | T/C [20]: 201% | T/C [21]: 160% | Activity [22]: -5 g | Activity [23]: -4.1 g | Activity [24]: -4.1 g | Activity [25]: -3.8 g | Activity [26]: -2.3 g | T/C [27]: 199% | Activity [28]: Toxic | Activity [29]: -4 g | Activity [30]: -6.1 g | Activity [31]: Toxic | T/C [32]: 143% | Activity [33]: -3.6 g
